{
  "source": "patent US7588756B1",
  "about": "“Treatment of cardiac power failure” (priority 1999, dated 2009)",
  "key": {"[1]": {"details": "clinical studies; cited from earlier work"}, "[2]": {"tested_on": "saponin-semipermeabilized skeletal muscle fibres of the rat", "assay": "Isometric force of saponin-semipermeabilized (skinned) skeletal muscle fibres, indirect measure of Ca2+ release from the SR", "details": "for Ca2+ sensitivity of the contractile apparatus / increase of maximum force development compared with the control: slow skeletal musculature (M. soleus); for Ca2+ sensitivity of the contractile apparatus: 5-10 μM; for increase of maximum force development compared with the control: equimolar concentration 5-10 μM", "protocol": "The aim of this test procedure was therefore to examine what functional significance these sequences—in the form of synthetic peptides—have compared with the whole protein for the regulation of the Ca^2+ release from the SR. The Ca^2+ release was measured indirectly on saponin-semipermeabilized skeletal muscle fibres of the rat over an isometric force gradient. The measurement of the isometric force before and after addition of S100A1 peptide/protein served as a control."}, "protein kinase C": {"tested_on": "protein kinase C", "details": "cited from earlier work"}, "[3]": {"tested_on": "microtubuli and intermediate filaments", "details": "biochemical reconstitutive assays; cited from earlier work"}, "[4]": {"tested_on": "neonatal rat cardiomyocytes", "assay": "Intracellular Ca2+ transients in cultivated neonatal rat cardiomyocytes after co-cultivation with recombinant S100A1", "assay_type": "cell-based", "details": "S100A1 1 μM to 10 μM at two-day intervals, 7 days", "protocol": "Neonatal rat hearts were removed from 3-day-old rats, ventricles separated from the atria and stored coarse-ground on ice in ADS buffer (6.8 g NaCl, 4.76 g HEPES, 0.12 g NaH2PO4, 1 g glucose, 0.4 g KCl, 0.1 g MgSO4 and 1000 ml H2O). In a bioreactor (Wheaton® container), the cells were then separated from the tissue assembly by means of collagenase digestion (108 U/mg/ml collagenase, Worthington, USA), and the released cells separated over a density gradient (Percoll, Pharmacia®) by centrifugation. The cardiomyocyte fraction was resuspended in cell culture medium (DMEM+10% newborn calf serum) and plated in a density of approx. 100,000 cardiomyocytes per well on 24-well cell culture plates. After 24 hours culture at 37° C. and 5% CO2, recombinant S100A1 was added to the cell culture medium at two-day intervals in concentrations of 1 μM to 10 μM. […] The intracellular Ca^2+ transients were then detected and quantified by means of inverse fluorescence microscopy (Olympus OSP 3®) under both rest conditions and electrical field stimulation (PHYWE®-bioelectrical measurement unit; frequencies of 30-300 bpm). […] The changes in the Ca^2+ concentration per time unit were measured as a quotient from the time until the signal maximum and the signal amplitude (+dc/dt) were reached or as a quotient of the time until the half amplitude and the signal amplitude (−dc/dt) were reached. […]"}},
  "data": [
    {"compound": "COc1ccc(-c2nc3ccc(C4=NNC(=O)CC4C)cc3[nH]2)cc1", "note": "(stereo not shown) [pimobendan]", "values": [
      {"measurement": "improvement of the heart function compared with placebo", "setting": "[1]", "result": "no significant improvement of the heart function"}
    ]},
    {"compound": "recombinant S100A1: Human recombinant Ca2+-binding protein S100A1 (SEQ ID NO: 2) prepared in genetically modified E. coli", "values": [
      {"measurement": "Ca2+ sensitivity of the contractile apparatus", "setting": "[2]", "result": "unchanged"},
      {"measurement": "increase of maximum force development compared with the control", "setting": "[2]", "result": "52%±7%"},
      {"measurement": "effect on protein kinase C", "setting": "protein kinase C", "result": "inhibition"},
      {"measurement": "polymerization of microtubuli and of intermediate filaments", "setting": "[3]", "result": "inhibition"},
      {"measurement": "rise in the Ca2+ concentration per time unit in the systole (+dc/dt), increase in comparison with the control cell population", "setting": "[4]; p<0.0002", "result": 3, "unit": "times"},
      {"measurement": "drop in the Ca2+ concentration per time unit in the diastole (-dc/dt), acceleration in comparison with the control cell population", "setting": "[4]; p<0.0003", "result": 2.2, "unit": "times"}
    ]},
    {"compound": "combination of “C-terminal” peptide and the “hinge region”: Combination of the C-terminal and hinge region synthetic S100A1 peptides (peptide 1 LSGFLDAQKDVDA; peptide 2 YVVLVAALTVA)", "values": [
      {"measurement": "increase of isometric force development", "setting": "[2]; before versus after addition of peptide", "result": "15%±4%"}
    ]},
    {"compound": "combination of the three peptides: Combination of the N-terminal, hinge region and C-terminal synthetic S100A1 peptides (peptide 1 GSELETAMETLINVF; peptide 2 LSGFLDAQKDVDA; peptide 3 YVVLVAALTVA)", "values": [
      {"measurement": "Ca2+ sensitivity of the contractile apparatus", "setting": "[2]", "result": "unchanged"},
      {"measurement": "increase of maximum force development compared with the control", "setting": "[2]", "result": "49%±6%"}
    ]}
  ]
}
